Some test systems named below: NCI/ADR-RES ovarian; SF-295 CNS; SW-620 colon; MDA-MB-435; HL-60(TB) leukemia; HOP-62 NSCLC; OVCAR-8 ovarian; TK-10 renal; MCF7 breast; SN12C renal; NCI-H23 lung; MDA-N; CAKI-1 renal; HOP-92 NSCLC; SF-539 CNS; EKVX NSCLC; MDA-MB-231 breast; SK-OV-3 ovarian; A498 renal; A549 NSCLC.
Assay in all cases: NCI-60 cell line screen, 48 h

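96-well plates; 48 h exposure; 5 concentrations. Endpoints by linear interpolation between flanking doses. Not reached: highest tested concentration assigned. At the TGI there is no net growth.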

As to `O=C(c1ccco1)n1c2ccc(Br)cc2c2nc3ccccc3nc21`, the TGI with NCI/ADR-RES ovarian was > 100 µM; with SF-295 CNS, > 100 µM; in the test on SW-620 colon, > 100 µM; in the test with MDA-MB-435, > 100 µM; in the test with HL-60(TB) leukemia, > 100 µM; with HOP-62 NSCLC it was 87 µM. Besides, the TGI in the test with OVCAR-8 ovarian, with TK-10 renal, with MCF7 breast, with SN12C renal, with NCI-H23 lung and with MDA-N was > 100 µM throughout. The TGI in the test on CAKI-1 renal, in the test on HOP-92 NSCLC, with SF-539 CNS and with EKVX NSCLC was > 100 µM throughout.
With `CCCCn1cnnc1NS(=O)(=O)c1cc(C)c(Cl)cc1SCC(=O)O`, the TGI in the test on MDA-MB-231 breast, in the test on NCI/ADR-RES ovarian, in the test with SF-295 CNS, with SW-620 colon, with MDA-MB-435 and with HL-60(TB) leukemia was > 10 µM in each case. Besides, the TGI in the test with HOP-62 NSCLC, in the test on OVCAR-8 ovarian, with TK-10 renal, in the test with SK-OV-3 ovarian, in the test on SN12C renal and in the test with A498 renal was > 10 µM in each case. For the same compound, the TGI in the test with NCI-H23 lung, with MDA-N, with CAKI-1 renal, in the test on SF-539 CNS, in the test on A549 NSCLC and with EKVX NSCLC was > 10 µM throughout.
For the compound `COc1ccc(C(=O)/C=C/c2ccc(OCCSCCCCCCCCCCSCCOc3ccc(/C=C/C(=O)c4ccc(OC)cc4)cc3)cc2)cc1`, the TGI in the test on MDA-MB-231 breast, in the test on NCI/ADR-RES ovarian, in the test on SF-295 CNS, with SW-620 colon, in the test with MDA-MB-435 and with HL-60(TB) leukemia was > 100 µM throughout. Moreover, the TGI in the test with HOP-62 NSCLC, in the test with OVCAR-8 ovarian, with TK-10 renal, with SK-OV-3 ovarian, in the test with MCF7 breast and in the test on SN12C renal was > 100 µM each time. Besides, the TGI with MDA-N, with CAKI-1 renal, with SF-539 CNS, in the test with A549 NSCLC and with EKVX NSCLC was > 100 µM each time.
Regarding `C/C(=N\NC(=S)NC1CCCC1)c1ccccn1`, the TGI is > 57.2 µM in the test with MDA-MB-231 breast; > 43.6 µM in the test on SF-295 CNS; > 100 µM in the test on SW-620 colon; > 75.6 µM with MDA-MB-435; > 81.9 µM in the test with HOP-62 NSCLC; > 22.4 µM in the test with OVCAR-8 ovarian. For the same compound, the TGI with TK-10 renal was > 100 µM; in the test with SK-OV-3 ovarian it was > 100 µM; in the test with MCF7 breast, 28.7 µM; in the test on SN12C renal, > 100 µM; with A498 renal, > 28 µM; in the test with NCI-H23 lung, > 100 µM. For the same compound, the TGI was 35.4 µM with MDA-N; > 100 µM in the test on CAKI-1 renal; 7.52 µM with SF-539 CNS; > 53.6 µM in the test on A549 NSCLC; > 100 µM in the test with EKVX NSCLC.
As to `NC1=NNC2(C(=O)N1)c1ccccc1-c1ccccc12`, the TGI in the test with NCI/ADR-RES ovarian, with SF-295 CNS, in the test with SW-620 colon, in the test on HL-60(TB) leukemia, with HOP-62 NSCLC and with OVCAR-8 ovarian was > 10 µM in each case. The TGI in the test with TK-10 renal, in the test on SK-OV-3 ovarian, in the test with MCF7 breast, in the test with SN12C renal, in the test with A498 renal and in the test with NCI-H23 lung was > 10 µM throughout. Moreover, the TGI in the test with MDA-N, in the test with CAKI-1 renal, in the test on HOP-92 NSCLC, in the test with SF-539 CNS and in the test with A549 NSCLC was > 10 µM each time.
In the case of `Cc1nc2ccc(F)cc2c2c1CCO2`, the TGI was 93.6 µM in the test with MDA-MB-231 breast; > 100 µM in the test with NCI/ADR-RES ovarian; > 100 µM in the test with SF-295 CNS; > 100 µM with SW-620 colon; > 100 µM in the test with MDA-MB-435; 55.2 µM with HL-60(TB) leukemia. For the same compound, the TGI in the test on OVCAR-8 ovarian, with TK-10 renal, in the test on SN12C renal, in the test with A498 renal, in the test with NCI-H23 lung and in the test on MDA-N was > 100 µM throughout. Moreover, the TGI in the test on CAKI-1 renal was 96 µM; in the test with HOP-92 NSCLC, > 100 µM; in the test with SF-539 CNS, > 100 µM; in the test on A549 NSCLC, > 100 µM; with EKVX NSCLC it was > 100 µM.
In the case of `COC(=O)[C@@H](O)[C@]1(C(=O)OC)C2O[C@@H](OC)[C@@H]1CCCCCC[C@H]2O`, the TGI with MDA-MB-231 breast, with NCI/ADR-RES ovarian, in the test on SF-295 CNS, in the test with SW-620 colon, in the test with MDA-MB-435 and with HOP-62 NSCLC was > 100 µM throughout. Further, the TGI with OVCAR-8 ovarian, with TK-10 renal, in the test with SK-OV-3 ovarian, in the test with SN12C renal, in the test with NCI-H23 lung and in the test with MDA-N was > 100 µM each time. Moreover, the TGI in the test on CAKI-1 renal, in the test on SF-539 CNS, in the test on A549 NSCLC and in the test on EKVX NSCLC was > 100 µM throughout.
With `O=C1CCCCC1=C(I)I`, the TGI with SF-295 CNS was 65.8 µM; with SW-620 colon, 31.2 µM; in the test on MDA-MB-435, 46.8 µM; with HL-60(TB) leukemia it was 26.2 µM; with HOP-62 NSCLC it was 57.5 µM; in the test on OVCAR-8 ovarian it was > 100 µM. Further, the TGI in the test on SK-OV-3 ovarian came to 56.8 µM; with SN12C renal it was 55.6 µM; in the test with A498 renal it was 35.5 µM; in the test on MDA-N it was 31.3 µM; with HOP-92 NSCLC, 29 µM; with SF-539 CNS, 36.6 µM. The TGI was > 100 µM with A549 NSCLC and 4.1 µM with EKVX NSCLC.

For the origin of these results see PubChem BioAssay (NCI).
